Measured values as given in patent US20130261191A1, “USE OF ESSENTIAL OIL COMPOUNDS AS HISTOMONASTAT” (DSM IP ASSETS B.V., priority 2007, published 2013).

The compounds below were run on Histomonas meleagridis (assay: In vitro lethal activity (minimal lethal concentration) towards Histomonas meleagridis culture, Trypan blue vital coloration). Conditions: lowest dilution in which no live organisms were observed; H. meleagridis culture 10^6 parasites/ml, 39° C., anaerobic.
Assay type: cell-based
Procedure: The in vitro activity of the several essential oil compounds was assessed using the following technique. Aliquots of 1 ml of H. meleagridis culture (10^6 parasites/ml) were incubated anaerobicaly for 24 h at 39° C. Twelve two-fold dilutions of a stock solution of each compound were prepared in 96-well U bottom plates (Prolabo, Lyon, France) in Tween 80 (Sigma, L'Isle d'Abeau, France) and added to the parasites. The initial dilution was 2% ([…]). After incubation for 24 h and 48 h, the number of live parasite in each culture was estimated by vital coloration with Trypan blue 0.4% (Gibco, BRL Life technology, Cergy Pontoise, France). The lowest dilution in which no live organisms were observed was defined as the minimal lethal concentration (MLC).
For `Cc1ccc(C(C)C)cc1` [cymene, p-], the “minimal lethal concentration (MLC)” value was 500 ppm.
In the case of `C=CC(C)(O)CCC=C(C)CCC=C(C)C` (stereo not drawn) [nerolidol], the “minimal lethal concentration (MLC)” value is reported as 125 ppm.
For `O=C/C=C/c1ccccc1` [cinnamaldehyde, trans-], the “minimal lethal concentration (MLC)” value was 250 ppm.
